Reference: patent US20160177395A1, “BIOMARKERS FOR THE PREDICTION OF RENAL INJURY” (priority 2007, published 2016)
Where “and” joins values, the source holds several entries; their conditions need not be identical. Identical values can stand only once.

Test system: kidney tissues of treated or untreated rats
Experiment: Real-time qRT-PCR of marker transcripts in kidney tissue panel, discovery stage (Table 22)
Format: in vivo, rat
Set-up: AI502869_DB71_seg0 normalized Real Time PCR expression: unit not given beside the values
Conditions: listed as Cis; for H33998_DB71_seg19 normalized Real Time PCR / MUSCYCG1R_DB81_seg15-17 normalized Real Time PCR / RATLRFI_DB71_seg9 normalized Real Time PCR / RATRAB13X_DB71_seg11-13 normalized Real Time PCR / RNU24174_DB71_seg8 normalized Real Time PCR / W41270_DB81_seg11 normalized Real Time PCR / W64472_DB81_seg2 normalized Real Time PCR / W83813_DB81_seg27 normalized Real Time PCR / AA686189_DB71_seg6 normalized Real Time PCR expression / AA799594_DB71_seg0 normalized Real Time PCR expression / AA964541_DB71_seg0 normalized Real Time PCR expression / AI045075_DB71_seg6 normalized Real Time PCR expression / AI454051_DB71_seg0 normalized Real Time PCR expression / AI502869_DB71_seg0 normalized Real Time PCR expression / AW919147_DB71_seg0 normalized Real Time PCR expression / BI293562_DB71_seg2 normalized Real Time PCR expression / H31045_DB71_seg5 normalized Real Time PCR expression / H31799_DB71_seg23 normalized Real Time PCR expression / H31883_DB71_seg13 normalized Real Time PCR expression: rat kidney
Procedure: Before RT preparation the RNA was treated with DNA-free (Ambion, cat. No. AM1906) DNase treatment and removal—according to manufacturer protocol. DNase procedure was repeated until no DNA is detected in a PCR reaction using the RNA samples.
The mixture is then incubated for 5 min at 65° C. and then quickly chilled on ice. Thereafter, 20 μl of 5× SuperscriptII first strand buffer (Invitrogen, Cat. No. Y00146), 9.6 μl 0.1M DTT (Invitrogen, Cat. No. Y00147) and 160 units RNasin (Promega, Cat. No. N251A) are added, and the mixture is incubated for 10 min at 25° C., followed by further incubation at 42° C. for 2 min. […] The resulting cDNA is diluted 1:20 in TE buffer (10 mM Tris pH=8, 1 mM EDTA pH=8).
cDNA (5 μl), prepared as described above, is used as a template in Real-Time PCR reactions using the SYBR Green I assay (PE Applied Biosystem) with specific primers in 100 nM concentration if not indicated otherwise and UNG Enzyme (Eurogentech or equal) Amplification is effected as follows: 50° C. for 2 min, 95° C. for 10 min, and then 40 cycles of 95° C. for 15 sec, followed by 60° C. for 1 min (if not indicated otherwise). Amplification step is followed by dissociation step. Detection is performed by using the PE Applied Biosystem SDS 7000. The cycle in which the reactions achieved a threshold level (Ct) of fluorescence is registered and is used to calculate the relative transcript quantity in the RT reactions. Non-detected samples are assigned Ct value of 41 and are calculated accordingly. The relative quantity is calculated using the equation Q=efficiencŷ-Ct. The efficiency of the PCR reaction is calculated from a standard curve, created by using serial dilutions of several reverse transcription (RT) reactions. To minimize inherent differences in the RT reaction, the resulting relative quantities are normalized to normalization factor calculated as follows: […]
The relative quantity (Q) of each housekeeping gene in each sample is calculated as described above. In order to calculate the “relative Q relative to MED” each Q for each HSKP gene is divided by the median quantity of this gene in all panel samples. To finally achieve the normalization factor of each sample the geometric mean of all four “relative Q relative to MED” was calculated. The normalization factor was then used for further calculations.
The markers of the present invention were tested with regard to their expression in a panel of kidney tissues samples from treated and control rats. Unless otherwise noted, all experimental data relates to the novel polynucleotides and proteins of the present invention, named according to the segment being tested (as expression was tested through RT-PCR as described). Tests were then performed as described in the “Materials and Experimental Procedures” section above.
The qRT-PCR measurements were normalized according to each samples normalization factor as described in “RT Preparation and Real-Time qRT-PCR Analysis” and further multiplied by a constant factor for ease of viewing.

[1] = day1, individual animals (F and M)
[2] = day5, individual animals (F and M)
[3] = day28, individual animals (F and M)

## N.N.[Cl][Pt][Cl] [Cisplatin]
kidney, female rats, day1
  normalized Real Time PCR MUSCYCG1R_DB81_seg19-20: 0.86 and 0.81
  normalized Real Time PCR RATRAB13X_DB81_seg15-17: 0.82 and 1.11 and 1.1
  normalized Real Time PCR RATRAB13X_DB81_seg22: 0.88 and 0.87 and 1.02
  normalized Real Time PCR W33294_DB81_seg44: 1 and 0.95
kidney, female rats, day5
  normalized Real Time PCR MUSCYCG1R_DB81_seg19-20: 2.77 and 3.44 and 2.45
  normalized Real Time PCR RATRAB13X_DB81_seg15-17: 1.37 and 1.53
  normalized Real Time PCR RATRAB13X_DB81_seg22: 1.71 and 1.92 and 1.99
  normalized Real Time PCR W33294_DB81_seg23: 2.03 and 1.99 and 1.58
  normalized Real Time PCR W33294_DB81_seg44: 2.31 and 2.19 and 2.15
kidney, female rats, day28
  normalized Real Time PCR MMU09507_DB81_seg15: 8.1 and 6.58 and 5.53
  normalized Real Time PCR MUSCYCG1R_DB81_seg19-20: 1.64 and 2.47 and 1.67
  normalized Real Time PCR RATRAB13X_DB81_seg15-17: 1.33
  normalized Real Time PCR RATRAB13X_DB81_seg22: 0.61 and 0.65 and 0.89
  normalized Real Time PCR W33294_DB81_seg23: 0.95 and 0.97 and 0.82
kidney, male rats, day1
  normalized Real Time PCR MUSCYCG1R_DB81_seg19-20: 0.85 and 0.71 and 1.18
  normalized Real Time PCR RATRAB13X_DB81_seg15-17: 0.73 and 0.84 and 0.98
  normalized Real Time PCR RATRAB13X_DB81_seg22: 0.65 and 0.66 and 1.11
  normalized Real Time PCR W33294_DB81_seg23: 0.59 and 0.49 and 0.64
  normalized Real Time PCR W33294_DB81_seg44: 0.6 and 0.84 and 0.96
kidney, male rats, day5
  normalized Real Time PCR MUSCYCG1R_DB81_seg19-20: 1.83 and 1.47 and 2.33
  normalized Real Time PCR RATRAB13X_DB81_seg15-17: 1.8 and 1.03 and 1.77
  normalized Real Time PCR RATRAB13X_DB81_seg22: 1.53 and 1.2
  normalized Real Time PCR W33294_DB81_seg44: 1.47 and 1.51
kidney, male rats, day28
  normalized Real Time PCR MUSCYCG1R_DB81_seg19-20: 2.13 and 1.97 and 2.21
  normalized Real Time PCR RATRAB13X_DB81_seg15-17: 0.95
  normalized Real Time PCR RATRAB13X_DB81_seg22: 0.66 and 0.76 and 0.65
  normalized Real Time PCR W33294_DB81_seg23: 0.95 and 0.82 and 0.88
  normalized Real Time PCR W33294_DB81_seg44: 0.83 and 0.89
[1]
  H33998_DB71_seg19 normalized Real Time PCR: 0.85 and 1 and 0.87 and 0.65 and 0.75 and 1.14
  MUSCYCG1R_DB81_seg15-17 normalized Real Time PCR: 0.77 and 0.85 and 0.72 and 0.54 and 0.35 and 0.67
  RATLRFI_DB71_seg9 normalized Real Time PCR: 1.49 and 0.3 and 0.57 and 0.24 and 0.2 and 0.37
  RATRAB13X_DB71_seg11-13 normalized Real Time PCR: 0.91 and 1.09 and 0.87 and 1.15
  RNU24174_DB71_seg8 normalized Real Time PCR: 0.57 and 0.32 and 0.36 and 0.2 and 0.27 and 0.69
  W41270_DB81_seg11 normalized Real Time PCR: 1.11 and 0.86 and 0.76 and 0.33 and 0.63 and 0.71
  W64472_DB81_seg2 normalized Real Time PCR: 0.8 and 0.54 and 0.55 and 0.3 and 0.51 and 0.92
  W83813_DB81_seg27 normalized Real Time PCR: 1.1 and 0.97 and 0.99 and 0.5 and 0.66 and 0.94
day1, individual animals
  AA686189_DB71_seg6 normalized Real Time PCR expression: 0.7 and 0.44 and 0.66 and 0.48 and 0.42 and 0.68
  AA799594_DB71_seg0 normalized Real Time PCR expression: 0.39 and 0.98 and 0.59 and 0.99 and 0.87
  AA964541_DB71_seg0 normalized Real Time PCR expression: 0.88 and 0.58 and 0.41 and 0.4 and 0.29 and 0.56
  AI045075_DB71_seg6 normalized Real Time PCR expression: 1.01 and 0.68 and 0.79 and 0.64 and 0.62 and 1.09
  AI454051_DB71_seg0 normalized Real Time PCR expression: 0.94 and 1.22 and 1 and 0.65 and 0.96 and 1.45
  AI502869_DB71_seg0 normalized Real Time PCR expression: 0.67 and 0.78 and 0.74 and 0.87 (2×) and 0.84
  AW919147_DB71_seg0 normalized Real Time PCR expression: 0.8 and 1.09 and 0.87 (2×) and 0.88
  BI293562_DB71_seg2 normalized Real Time PCR expression: 0.74 and 0.5 and 0.38 and 0.7 and 0.39 and 0.71
  H31045_DB71_seg5 normalized Real Time PCR expression: 0.24 and 0.28 and 0.22 and 0.82 and 0.21 and 1.22
  H31799_DB71_seg23 normalized Real Time PCR expression: 1.03 and 1.09 and 1.22
  H31883_DB71_seg13 normalized Real Time PCR expression: 2.03 and 0.74 and 0.71 and 1.52
[2]
  H33998_DB71_seg19 normalized Real Time PCR: 1.79 and 1.84 and 1.95 and 1.49 and 0.46 and 2.14
  MUSCYCG1R_DB81_seg15-17 normalized Real Time PCR: 3.12 and 3.59 and 2.07 and 2.31 and 0.92 and 2.34
  RATLRFI_DB71_seg9 normalized Real Time PCR: 0.79 and 0.44 and 0.32 and 0.65 and 0.34 and 1.97
  RATRAB13X_DB71_seg11-13 normalized Real Time PCR: 1.01 and 1.02 and 0.74
  RNU24174_DB71_seg8 normalized Real Time PCR: 0.97 and 0.7 and 0.6 and 1.3 and 0.31 and 3.6
  W41270_DB81_seg11 normalized Real Time PCR: 1.97 and 1.9 and 1.79 and 1.51 and 3.12
  W64472_DB81_seg2 normalized Real Time PCR: 2.23 and 2.1 and 1.99 and 2.64 and 0.95 and 4.55
  W83813_DB81_seg27 normalized Real Time PCR: 2.12 (2×) and 2.25 and 1.39 and 0.94 and 1.41
day5, individual animals
  AA686189_DB71_seg6 normalized Real Time PCR expression: 0.93 and 0.76 and 1.5 and 0.69 and 4.48
  AA799594_DB71_seg0 normalized Real Time PCR expression: 1.34 and 1.11 and 0.93 and 0.71 and 0.75
  AA964541_DB71_seg0 normalized Real Time PCR expression: 0.99 and 0.74 and 0.76 and 1.94 and 0.67 and 4.8
  AI045075_DB71_seg6 normalized Real Time PCR expression: 0.86 and 0.53 and 0.76 and 1.93 and 0.81 and 1.33
  AI454051_DB71_seg0 normalized Real Time PCR expression: 1.43 and 1.39 and 0.92 and 0.86
  AI502869_DB71_seg0 normalized Real Time PCR expression: 0.8 and 0.93 and 0.74 and 0.52 and 0.61
  AW919147_DB71_seg0 normalized Real Time PCR expression: 1.39 and 0.83 and 0.8 and 0.88
  BI293562_DB71_seg2 normalized Real Time PCR expression: 0.74 and 0.67 and 0.7 and 3.45 and 0.81 and 1.76
  H31045_DB71_seg5 normalized Real Time PCR expression: 1.8 and 0.34 and 0.51 and 3.25 and 0.23 and 1.66
  H31799_DB71_seg23 normalized Real Time PCR expression: 1.1 and 0.74 and 1.23 and 0.92
  H31883_DB71_seg13 normalized Real Time PCR expression: 1.44 and 1.2 and 1.73 and 1.3 and 2.43
[3]
  H33998_DB71_seg19 normalized Real Time PCR: 0.55 and 0.69 and 0.85 and 0.61 and 0.62 and 0.41
  MUSCYCG1R_DB81_seg15-17 normalized Real Time PCR: 1.96 and 2.57 and 2.7 and 2.09 and 2.31 and 1.93
  RATLRFI_DB71_seg9 normalized Real Time PCR: 2.33 and 3.05 and 3.8 and 3.03 and 2.4 and 2.26
  RATRAB13X_DB71_seg11-13 normalized Real Time PCR: 1.62 and 1.78 and 1.57 and 1.24 and 1.31
  RNU24174_DB71_seg8 normalized Real Time PCR: 8.38 and 12.63 and 12.14 and 10.21 and 7.3 and 8.08
  W41270_DB81_seg11 normalized Real Time PCR: 1.45 (2×) and 1.8 and 1.48 and 1.94 and 1.11
  W64472_DB81_seg2 normalized Real Time PCR: 1.81 and 3.16 and 2.87 and 2.8 and 3.04 and 1.65
  W83813_DB81_seg27 normalized Real Time PCR: 0.71 and 0.7 and 0.78 and 0.51 (2×) and 0.57
day28, individual animals
  AA686189_DB71_seg6 normalized Real Time PCR expression: 0 and 3.57 and 6.06 and 3.15 and 4.29 and 3.86
  AA799594_DB71_seg0 normalized Real Time PCR expression: 0.74 and 0.64 and 0.52 and 0.36 and 0.97 and 0.62
  AA964541_DB71_seg0 normalized Real Time PCR expression: 2.63 and 5.28 and 6.85 and 3.72 and 4.71 and 3.97
  AI045075_DB71_seg6 normalized Real Time PCR expression: 2.17 and 3.09 and 3.37 and 3.18 and 2.72 and 1.57
  AI454051_DB71_seg0 normalized Real Time PCR expression: 0.68 and 0.8 and 0.87 and 0.73 and 0.82 and 0.78
  AI502869_DB71_seg0 normalized Real Time PCR expression: 1.03 (2×) and 0.74 and 1.35 and 0.95
  AW919147_DB71_seg0 normalized Real Time PCR expression: 0.54 (2×) and 0.72 and 0.66 and 0.84
  BI293562_DB71_seg2 normalized Real Time PCR expression: 5.98 and 12.27 and 8.01 and 6.24 and 2.93 and 3.33
  H31045_DB71_seg5 normalized Real Time PCR expression: 0.73 (2×) and 0.81 and 0.88 and 2.92 and 2.96
  H31799_DB71_seg23 normalized Real Time PCR expression: 1.15 and 0.98 and 0.88 and 0.9
  H31883_DB71_seg13 normalized Real Time PCR expression: 2.72 and 4.07 and 3.83 and 2.41 and 3.37 and 2.23
